The values below come from PMC5999327 (Organic letters, 2018).

One test addresses HDAC1 (Homo sapiens, UniProt Q13547). Briefly: biochemical HDAC assay with ZMAL substrate, HDAC1. The note with it: read-out: HDAC1 IC50.
For test [1], the system named is Cal27 cells. As to the kind of experiment: whole cell HDAC assay with Boc-Lys. Type of test: cell-based. The note with it: Homo sapiens, CAL-27, read-out: HDAC (Cal27) IC50.
For test [2], the system named is Cal27 cells. As to the kind of experiment: MTT cytotoxicity assay. Format: cell-based. The note with it: Homo sapiens, CAL-27, read-out: MTT (Cal27) IC50. A general note: Tetrazolium dyes change colour on reduction, which living cells bring about.
Test [3] relates to Cal27 cells. As to the kind of experiment: western blotting of α-tubulin and histone H3 acetylation in Cal27. Type of test: cell-based, human. The note with it: western blot, Cal27, compared to control. A general note: Immunoblotting shows a protein as a band on a membrane.

HDAC1, sequence (Q13547 whole entry): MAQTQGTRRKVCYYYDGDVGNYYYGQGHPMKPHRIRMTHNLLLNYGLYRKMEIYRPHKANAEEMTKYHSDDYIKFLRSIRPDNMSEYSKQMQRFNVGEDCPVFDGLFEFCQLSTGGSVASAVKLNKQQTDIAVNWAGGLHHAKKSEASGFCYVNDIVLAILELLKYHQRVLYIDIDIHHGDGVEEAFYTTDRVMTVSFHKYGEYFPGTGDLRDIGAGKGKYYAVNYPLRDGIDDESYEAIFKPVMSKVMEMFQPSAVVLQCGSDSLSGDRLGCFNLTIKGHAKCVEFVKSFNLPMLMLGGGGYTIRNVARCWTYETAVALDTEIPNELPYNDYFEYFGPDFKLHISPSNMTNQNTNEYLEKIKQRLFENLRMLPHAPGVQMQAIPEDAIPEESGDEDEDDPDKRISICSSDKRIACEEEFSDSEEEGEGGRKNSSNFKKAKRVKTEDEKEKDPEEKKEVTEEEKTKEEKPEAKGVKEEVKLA

A word on the IC50: it is the midpoint of a concentration-inhibition curve. Take `O=C(NO)c1ccc(CC(=O)N(CCO)c2ccccc2)cc1` [HPOB]: the IC50 at HDAC1 was determined as 2.1 µM.

Take `CCCCN(Cc1ccc(C(=O)NO)cc1)C(=O)Nc1ccccc1` [Nexturastat A]: the IC50 turned out to be 5.87 µM in the test on Cal27 cells [1] and 7.75 µM with Cal27 cells [2].

For `CN1CCc2c(c3ccccc3n2Cc2ccc(C(=O)NO)cc2)C1` [Tubastatin A], the IC50 stood at 11.4 µM in the test with Cal27 cells [1] and 5.34 µM with Cal27 cells [2]. For the same compound, the “acetylation of α-tubulin” value with Cal27 cells [3] is given as “preferential hyperacetylation of α-tubulin”.

Take `O=C(CCCCCCC(=O)Nc1ccccc1)NO` [vorinostat]: in the test with Cal27 cells [3], the “acetylation of histone H3” value is given as “increase in acetylation” and the “acetylation of α-tubulin” value is “increase in acetylation”.
